Experimental data from ChEMBL document CHEMBL1201862, “PubChem BioAssay data set” (2004).
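Following 48 hours of exposure in 96-well plates, responses at five concentrations were used to interpolate endpoints linearly. GI50: concentration for 50% inhibition of growth.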 The source made the active and inactive calls. Cut-off read from the data, not from the text of the source: active = GI50 up to about 1.1 µM and inactive = higher.

Tests used:
Test in all cases: DTP human tumour cell line panel, 48 h
[1] = tested on: SF-539
[2] = tested on: U-251
[3] = tested on: A498
[4] = tested on: MOLT-4
[5] = tested on: CAKI-1
[6] = tested on: UACC-257
[7] = tested on: RPMI-8226
[8] = tested on: Malme-3M
[9] = tested on: HCT-116
[10] = tested on: UACC-62
[11] = tested on: SK-MEL-28
[12] = tested on: A549
[13] = tested on: M14
[14] = tested on: RXF 393
[15] = tested on: TK-10

Row | Compound | GI50 [1] | GI50 [2] | GI50 [3] | GI50 [4] | GI50 [5] | GI50 [6] | GI50 [7] | GI50 [8] | GI50 [9] | GI50 [10] | GI50 [11] | GI50 [12] | GI50 [13] | GI50 [14] | GI50 [15]
1 | c1ccc(OCc2nnc3n2N=C(c2ccccc2)CS3)cc1 | > 100 µM (inactive) | > 100 µM (inactive) | 53.5 µM (inactive) | 71.6 µM (inactive) | 71 µM (inactive) | > 100 µM (inactive) | > 100 µM (inactive) | > 100 µM (inactive) | > 100 µM (inactive) | > 100 µM (inactive) | > 100 µM (inactive) | > 100 µM (inactive) | > 100 µM (inactive) | > 100 µM (inactive) | > 100 µM (inactive)
2 | Nc1ncnc2c(C3OC(CO)C(O)C3O)scc12 (stereo not drawn) | 4.94 µM (inactive) | 3.78 µM (inactive) | 0.0316 µM (active) | 0.0767 µM (active) | < 0.01 µM (active) | 0.0792 µM (active) | 0.00222 µM (active) | 2.54 µM (inactive) | 0.00885 µM (active) | 0.00321 µM (active) | 0.873 µM (active) | 0.00721 µM (active) | 0.00586 µM (active) | 0.222 µM (active) | 0.191 µM (active)
3 | CCOC(=O)c1nc2ccc([N+](=O)[O-])cc2c2c1CCO2 | > 100 µM (inactive) | > 100 µM (inactive) | > 100 µM (inactive) | > 100 µM (inactive) | > 100 µM (inactive) | > 100 µM (inactive) |  | > 100 µM (inactive) | > 100 µM (inactive) | > 100 µM (inactive) | > 100 µM (inactive) | > 100 µM (inactive) | > 100 µM (inactive) | > 100 µM (inactive) | > 100 µM (inactive)
4 | O=C(Nc1cc(Cl)ccc1Cl)C(=O)C(c1cnc2ccccc2n1)[N+](=O)[O-] (stereo not drawn) | > 100 µM (inactive) | > 100 µM (inactive) | > 100 µM (inactive) | > 100 µM (inactive) | > 100 µM (inactive) | > 100 µM (inactive) | > 100 µM (inactive) | > 100 µM (inactive) | > 100 µM (inactive) | > 100 µM (inactive) | > 100 µM (inactive) | > 100 µM (inactive) | > 100 µM (inactive) | > 100 µM (inactive) | > 100 µM (inactive)
5 | CC1=CC(=O)N2[C@H](OC[C@@H]2C(C)C)O1 | > 100 µM (inactive) | > 100 µM (inactive) |  | > 100 µM (inactive) | > 100 µM (inactive) | > 100 µM (inactive) | > 100 µM (inactive) | > 100 µM (inactive) | > 100 µM (inactive) | > 100 µM (inactive) | > 100 µM (inactive) | > 100 µM (inactive) | > 100 µM (inactive) | > 100 µM (inactive) | > 100 µM (inactive)
6 | Cc1ccc(N2C(=O)/C(=C/c3ccc(N(CCC#N)CCC#N)cc3)N=C2COc2ccc(Cl)cc2Cl)cc1 | > 100 µM (inactive) | > 100 µM (inactive) |  | > 100 µM (inactive) | > 100 µM (inactive) | > 100 µM (inactive) | > 100 µM (inactive) | > 100 µM (inactive) | > 100 µM (inactive) | > 100 µM (inactive) | > 100 µM (inactive) | > 100 µM (inactive) | > 100 µM (inactive) | > 100 µM (inactive) | > 100 µM (inactive)
7 | O=C1CCC(=O)C(C(=O)CCC(=O)Nc2ccc(Cl)cc2)C1 (stereo not drawn) | > 100 µM (inactive) | > 100 µM (inactive) | > 100 µM (inactive) | > 100 µM (inactive) | > 100 µM (inactive) | > 100 µM (inactive) | > 100 µM (inactive) | > 100 µM (inactive) | > 100 µM (inactive) | > 100 µM (inactive) |  | > 100 µM (inactive) | > 100 µM (inactive) |  | > 100 µM (inactive)
8 | Oc1cc(Cl)ncn1 |  | > 100 µM (inactive) | > 100 µM (inactive) | > 100 µM (inactive) | > 100 µM (inactive) | > 100 µM (inactive) | > 100 µM (inactive) | > 100 µM (inactive) | > 100 µM (inactive) | > 100 µM (inactive) | > 100 µM (inactive) | > 100 µM (inactive) | > 100 µM (inactive) |  | > 100 µM (inactive)
9 | Cc1c(C(=O)CC(=O)C(=O)NC2C3CC4CC(C3)CC2C4)[n+]([O-])c2ccccc2[n+]1[O-] (stereo not drawn) | > 100 µM (inactive) | > 100 µM (inactive) | > 100 µM (inactive) | > 100 µM (inactive) | > 100 µM (inactive) | > 100 µM (inactive) | > 100 µM (inactive) | > 100 µM (inactive) | > 100 µM (inactive) | > 100 µM (inactive) | > 100 µM (inactive) | > 100 µM (inactive) | > 100 µM (inactive) | > 100 µM (inactive) | > 100 µM (inactive)
10 | CCOC(=O)c1cnc2sc3ccc4ccccc4c3n2c1=O | 30.1 µM (inactive) | 94 µM (inactive) |  | 28.1 µM (inactive) | 29.5 µM (inactive) | 87.9 µM (inactive) | 27.9 µM (inactive) | 63.2 µM (inactive) | 41.4 µM (inactive) | 77.6 µM (inactive) | 98.6 µM (inactive) | 53.3 µM (inactive) | 81.1 µM (inactive) | > 100 µM (inactive) | 62.5 µM (inactive)
11 | COc1ccc(Oc2ccccc2N)cc1 | 20.2 µM (inactive) | 12.4 µM (inactive) | > 100 µM (inactive) | 18 µM (inactive) |  | 57.4 µM (inactive) | 31.8 µM (inactive) | > 100 µM (inactive) | 17.2 µM (inactive) | 19.3 µM (inactive) | 28.2 µM (inactive) | 38.1 µM (inactive) | 58.7 µM (inactive) | 19.8 µM (inactive) | 
12 | CC1=C2[C@H](c3ccccc3)C3C=CC2(c2ccccc23)N(C(=O)C(c2ccccc2)c2ccccc2)C1=O (stereo partly drawn) | > 100 µM (inactive) | > 100 µM (inactive) | > 100 µM (inactive) | > 100 µM (inactive) | > 100 µM (inactive) | > 100 µM (inactive) |  | > 100 µM (inactive) | > 100 µM (inactive) | > 100 µM (inactive) | > 100 µM (inactive) | > 100 µM (inactive) | > 100 µM (inactive) | > 100 µM (inactive) | > 100 µM (inactive)
13 | COc1ccc2c(c1)[n+]([O-])c(-c1ccc(C)cc1)c(N)[n+]2[O-] | 86.1 µM (inactive) | 54.7 µM (inactive) | > 100 µM (inactive) |  | 49.2 µM (inactive) | 23.6 µM (inactive) | 75.5 µM (inactive) | 76.2 µM (inactive) | > 100 µM (inactive) |  | 89.5 µM (inactive) | 55.3 µM (inactive) | 52.5 µM (inactive) |  | 
14 | N#CC1(C#N)C(c2ccc(C3C(C#N)(C#N)C3(C#N)C#N)cc2)C1(C#N)C#N | > 100 µM (inactive) | > 100 µM (inactive) |  | > 100 µM (inactive) | > 100 µM (inactive) | > 100 µM (inactive) | > 100 µM (inactive) | > 100 µM (inactive) |  | > 100 µM (inactive) | > 100 µM (inactive) | > 100 µM (inactive) | > 100 µM (inactive) | > 100 µM (inactive) | > 100 µM (inactive)
